Data: US20250195504A1, “NALTREXAMINE DERIVATIVES BEARING 5-MEMBER HETEROCYCLIC RING SYSTEMS AND OPIOID RECEPTOR MODULATORS” (VIRGINIA COMMONWEALTH UNIVERSITY, priority 2022, published 2025)
Counter-ions that a name gives are not always drawn.

How the values were obtained:
DOR = target: T1, DOR (Homo sapiens, UniProt P41143); test: competitive radioligand binding assay, DOR ([3H]diprenorphine, CHO cell membranes); conditions: Tables A, B; read-out: Binding Affinity Ki (nM) ± SEM, DOR
T1 construct: expressed in transfected cells; host or cells: CHO
Experimental: Binding affinity and selectivity of all synthesized ligands on the three opioid receptors were determined using the competitive radioligand binding assay.
The competition binding assay was conducted using the monoclonal mouse opioid receptors expressed in Chinese hamster ovary (CHO) cell lines (monoclonal human δ opioid receptor was used in the DOR assay). […] The bound radioligand was separated by filtration using the Brandel harvester. Specific (i.e., opioid receptor-related) binding at the MOR, KOR, and DOR was determined as the difference in binding obtained in the absence and presence of 5 μM naltrexone, U50,488, and SNC80, respectively. […]
Results were reported as mean values ±SEM. […] By using the Cheng-Prusoff equation Ki=IC50/[1+([L]/KD)], where [L] is the concentration of the competitor and KD is the KD of the radioligand, binding Ki values were determined from IC50 values.
The competition binding assay was conducted using the monoclonal mouse opioid mu or kappa receptor expressed in CHO cell lines (monoclonal human δ opioid receptor was used in the DOR assay). […] Specific (i.e., opioid receptor-related) binding to the MOR, KOR, and DOR was determined as the difference in binding obtained in the absence and presence of 5 μM of naltrexone, U50,488, and SNC80, respectively. […]

hNK3 = hNK3 (Homo sapiens, UniProt P29371); test: side effect profiling, hNK3; type: binding
h5-HT2b = h5-HT2b (Homo sapiens, UniProt P41595); test: side effect profiling, h5-HT2b; type: binding; conditions: at 10 uM
Chain of h5-HT2b (P41595 whole entry): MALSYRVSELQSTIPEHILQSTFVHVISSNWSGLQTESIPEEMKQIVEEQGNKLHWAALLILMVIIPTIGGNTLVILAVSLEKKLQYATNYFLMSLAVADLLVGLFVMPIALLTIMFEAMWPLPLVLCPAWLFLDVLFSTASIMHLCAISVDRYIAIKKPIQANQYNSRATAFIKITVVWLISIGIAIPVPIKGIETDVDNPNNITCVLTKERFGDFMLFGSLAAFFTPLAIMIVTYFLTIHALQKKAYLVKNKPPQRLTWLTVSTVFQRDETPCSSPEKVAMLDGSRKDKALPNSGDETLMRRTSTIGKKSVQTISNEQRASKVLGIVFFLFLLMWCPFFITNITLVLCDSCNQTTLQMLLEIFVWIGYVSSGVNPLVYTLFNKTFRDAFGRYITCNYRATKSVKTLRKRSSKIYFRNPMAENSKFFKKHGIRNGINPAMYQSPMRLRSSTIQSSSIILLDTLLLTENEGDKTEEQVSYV

Chain of hNK3 (P29371 whole entry): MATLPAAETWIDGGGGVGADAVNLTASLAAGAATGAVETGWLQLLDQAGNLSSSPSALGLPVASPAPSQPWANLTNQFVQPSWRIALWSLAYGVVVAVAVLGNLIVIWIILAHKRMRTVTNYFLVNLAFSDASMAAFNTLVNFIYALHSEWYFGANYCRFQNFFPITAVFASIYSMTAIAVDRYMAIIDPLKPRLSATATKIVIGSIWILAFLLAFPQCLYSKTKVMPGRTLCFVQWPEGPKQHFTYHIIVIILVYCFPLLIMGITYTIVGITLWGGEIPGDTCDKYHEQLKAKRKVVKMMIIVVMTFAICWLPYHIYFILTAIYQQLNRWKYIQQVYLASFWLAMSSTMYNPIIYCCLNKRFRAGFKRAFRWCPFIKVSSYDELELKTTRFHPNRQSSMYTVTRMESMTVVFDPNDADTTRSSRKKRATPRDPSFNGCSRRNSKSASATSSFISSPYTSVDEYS
T1 sequence (P41143 whole entry): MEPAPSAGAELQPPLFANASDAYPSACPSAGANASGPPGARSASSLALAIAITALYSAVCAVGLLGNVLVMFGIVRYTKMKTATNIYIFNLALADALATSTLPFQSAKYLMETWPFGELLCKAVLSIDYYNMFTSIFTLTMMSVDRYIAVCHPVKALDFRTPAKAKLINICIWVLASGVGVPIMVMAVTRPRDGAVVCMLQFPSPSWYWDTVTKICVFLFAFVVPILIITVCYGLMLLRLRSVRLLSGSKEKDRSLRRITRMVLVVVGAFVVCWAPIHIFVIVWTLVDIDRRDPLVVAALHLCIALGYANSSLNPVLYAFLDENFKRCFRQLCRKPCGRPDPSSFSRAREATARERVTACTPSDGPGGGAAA

## O=C(N[C@H]1CC[C@@]2(O)[C@H]3Cc4ccc(O)c5c4[C@@]2(CCN3CC2CC2)[C@H]1O5)c1nccs1 [NTZ, 17-Cyclopropylmethyl-3,14β-dihydroxy-4,5α-epoxy-6α-(2′-thiazolylcarboxamido)morphinan hydrochloride]
DOR
  Ki: 41.1 ± 3.58 nM

## O=C(N[C@H]1CC[C@@]2(O)[C@H]3Cc4ccc(O)c5c4[C@@]2(CCN3CC2CC2)[C@H]1O5)c1cccs1 [Example 1 compound 25, 17-Cyclopropylmethyl-3,14β-dihydroxy-4,5α-epoxy-6α-(2′-thienylcarboxamido)morphinan hydrochloride]
hNK3
  Ki: 3.9 µM
hNK3; at 10 uM
  hNK3 binding: 56%
h5-HT2b
  h5-HT2b binding: h5-HT2b (78% at 10 uM)
